From US20060040861A1, “Method of treating, preventing, and diagnosing prostate cancer” (priority 2004, published 2006)

Assays:
[1] = system: LNCaP-FGC cells; experiment: [3H] thymidine incorporation assay; format: cell-based, human
Description: (§1) DU145 (1.5×10^5/well), PC-3 (1.0×10^5/well) and LNCaP-FGC (2.0×10^5/well) cells were seeded into 24-well plates 24 hours before serum-starvation. Cells were deprived of serum for 48 hours, followed by incubation with leptin at indicated concentrations or 100 ng/ml IL-6 for 20 hours. In some experiments, cells were pretreated with SP600125 prior to cytokine stimulation as described below. Cells in each well were pulsed with 1 μCi of [^3H] thymidine (Amersham Pharmacia Biotech Inc., Piscataway, N.J., USA) during the final 5 hours, washed once with PBS, fixed with cold 5% trichloroacetic acid, solubilized with 0.25 M NaOH, and counted in scintillant. Each experiment was performed in quadruplicate, and the values are reported as mean±SD.

[2] = system: DU145 cells; experiment: [3H] thymidine incorporation assay; format: cell-based, human
Description: as §1
(§2) SP600125 was dissolved in DMSO to make a stock solution. Eighty-percent confluent prostate cancer cells were serum-starved for 24 hours and pretreated with SP600125 at indicated concentrations for 30 minutes, followed by leptin treatment (12.5 μg/ml): 15 minutes for Western blot analysis or 20 hours for thymidine incorporation assays. DMSO-treated cells were employed as controls.

[3] = system: PC-3 cells; experiment: [3H] thymidine incorporation assay; format: cell-based, human
Description: as §1, §2

[4] = system: LNCaP-FGC cells; experiment: Cell proliferation with leptin and DHT; format: cell-based, human; conditions: only in the presence of DHT
[5] = system: c-Jun; experiment: Western blot analysis of c-Jun phosphorylation in C2C12 myoblasts; format: cell-based, murine; conditions: 1.0 μg/ml
Description: (§3) Seventy-percent confluent cells were deprived of serum for 24 hours, followed by treatment with 1 μg/ml f- or g-adiponectin or 10 μg/ml anisomycin for indicated periods. After being rinsed with cold phosphate-buffered saline, cells were harvested using a scraper and collected by centrifugation at 700×g for 10 minutes at 4° C. The cell pellets were then homogenized in cell lysis buffer (20 mM HEPES, pH 7.9, 300 mM NaCl, 1 mM Na3VO4, 1 μg/ml leupeptin, 5 μg/ml aprotinin, 1 μg/ml pepstatin, and 1 mM phenylmethylsulfonyl fluoride) and rocked gently for 30 minutes at 4° C. The homogenates were centrifuged at 15,000×g for 5 minutes at 4° C., and the supernatants were saved as cell lysates and stored at −80° C. until use.
Cell lysates (100 μg of protein) were electrophoresed on 10% SDS-polyacrylamide gels and transferred to polyvinylidene difluoride membranes. After being washed and blocked, the membranes were hybridized with anti-phospho-c-Jun (Ser-63 or Ser-73) polyclonal antibody that specifically detects phosphorylated c-Jun molecules. The membranes were then stripped and re-hybridized with anti-c-Jun antibody that recognizes both phosphorylated and unphosphorylated c-Jun molecules to normalize sample variations.

[6] = system: JNK; experiment: In vitro JNK assay on lysates of treated C2C12 myoblasts; format: cell-based, murine; conditions: 1.0 μg/ml
Description: as §3
Using the stress-activated protein kinase/JNK assay kit, JNK activity was assessed with a fusion protein of the c-Jun NH2 terminus (amino acids 1 to 89) and glutathione S-transferase as a substrate according to the manufacture's instructions with some modifications as reported before (M. Onuma, et al., supra, 2003). […] The substrate fusion protein was separated by SDS-polyacrylamide gel electrophoresis, and its phosphorylation by JNK was determined by Western blot analysis using anti-phospho-c-Jun (Ser-63) polyclonal antibody. To normalize sample variations, JNK protein levels were also determined by Western blot analysis using anti-JNK antibody.

Row | Molecule | cell proliferation on co-treatment with leptin and IGF-I ([1]; 12.5 μg/ml leptin with 100 ng/ml IGF-I, 20 hours) | effect on the IL-6-induced inhibition of cell proliferation ([1]; 12.5 μg/ml leptin with 100 ng/ml IL-6, 20 hours) | [3H] thymidine incorporation (cell proliferation), cytokine alone ([1]; serum-deprived, leptin up to 12.5 μg/ml, IL-6 100 ng/ml or IGF-I 100 ng/ml, 20 hours) | [3H] thymidine incorporation (cell proliferation), cytokine alone ([2]; DU145, serum-deprived, leptin up to 12.5 μg/ml, IL-6 100 ng/ml or IGF-I 100 ng/ml, 20 hours) | effect on the IGF-I stimulation of cell proliferation ([2]; DU145, 12.5 μg/ml leptin with 100 ng/ml IGF-I, 20 hours) | effect on the IL-6 stimulation of cell proliferation ([2]; DU145, 12.5 μg/ml leptin with 100 ng/ml IL-6, 20 hours) | [3H] thymidine incorporation (cell proliferation), cytokine alone ([3]; PC-3, serum-deprived, leptin up to 12.5 μg/ml, IL-6 100 ng/ml or IGF-I 100 ng/ml, 20 hours) | effect on the IGF-I stimulation of cell proliferation ([3]; PC-3, 12.5 μg/ml leptin with 100 ng/ml IGF-I, 20 hours) | effect on the IL-6 stimulation of cell proliferation ([3]; PC-3, 12.5 μg/ml leptin with 100 ng/ml IL-6, 20 hours) | cell proliferation, leptin together with androgen (DHT) [4] | c-Jun phosphorylation at Ser-63 [5] | c-Jun phosphorylation at Ser-73 [5] | time of peak JNK activation after addition [6] [min] | JNK activation ([6]; up to 60 minutes)
1 | leptin: Recombinant human leptin purchased from R&D Systems; major adipose cytokine | did not influence | did not influence | did not influence | stimulated thymidine incorporation remarkably in a dose-dependent fashion | drastic, synergistic effects | additive effects | stimulated thymidine incorporation remarkably in a dose-dependent fashion | drastic, synergistic effects | additive effects | synergistically stimulate cell proliferation | – | – | – | –
2 | f-adiponectin: Recombinant human full-length (non-proteolytic) adiponectin, about 30-kDa polypeptide; lot mainly HMW form (protein, UniProt Q15848 1-244, looked up, full-length, Recombinant human full-length (non-proteolytic) adiponectin, about 30-kDa polypeptide; lot mainly HMW form) MLLLGAVLLLLALPGHDQETTTQGPGVLLPLPKGACTGWMAGIPGHPGHNGAPGRDGRDGTPGEKGEKGDPGLIGPKGDIGETGVPGAEGPRGFPGIQGRKGEPGEGAYVYRSAFSVGLETYVTIPNMPIRFTKIFYNQQNHYDGSTGKFHCNIPGLYYFAYHITVYMKDVKVSLFKKDKAMLFTYDQYQENNVDQASGSVLLHLEVGDQVWLQVYGEGERNGLYADNDNDSTFTGFLLYHDTN | – | – | – | – | – | – | – | – | – | – | augmented c-Jun phosphorylation at Ser-63 | stimulated Ser-73 phosphorylation | 10 | further stimulated JNK activation
